The values that follow come from PMC4840272 (Neoplasia (New York, N.Y.), 2016).

Where two headings read alike, the source gives them in different places.

The subject of one series is H460 cells. Kind of series: cells. In kind it is cell-based, human.
The subject of a further series is A549 cells. The series can be described thus: cells. In kind it is cell-based, human.
For the next series, the system named is H1299 cells. The series can be described thus: cells. In kind it is cell-based, human.
In a further series the test system is H1650 cells. Kind of series: cells. The format is cell-based, human.
The subject of another series is H1975 cells. The series can be described thus: cells. The format is cell-based, human.
The subject of another series is PC9 cells. Kind of series: cells. In kind it is cell-based, human.
The next series relates to CL1-5 cells. The series can be described thus: alamarBlue in vitro cytotoxicity assay. The format is cell-based, human. (The colour change of resazurin is a common sign of viable cells or microbes.)
For a further series, the system named is CL141T cells. The series can be described thus: cells. In kind it is cell-based, human.
The test system of the next series is CL100 cells. Kind of series: cells. In kind it is cell-based, human.
A further series relates to CL97 cells. The series can be described thus: cells. The format is cell-based, human.
In another series the test system is PC9/gef B4 cells. The series can be described thus: cells. In kind it is cell-based, human. The following applies: for resistance factor of PC9/gef B4 to PC9 cells: IC50 ratio, number in brackets.
A further series has as its system MES-SA. The series can be described thus: cytotoxicity in multiple drug-resistant and cisplatin-resistant cells. In kind it is cell-based.
In another series the test system is MES-SA/dx5. The description is as above. The format is cell-based. The following applies: for resistance factor: MES-SA/dx5 vs MES-SA.
A further series concerns NTUB1. Described as above. In kind it is cell-based.
Another series has as its system NTUB1/P. The description is as above. In kind it is cell-based.
A further series deals with H460 xenograft. Kind of series: H460 xenograft in nude mice. The format is in vivo. The conditions noted are these: BO-1978 40 mg/kg QDx5, cisplatin 6 mg/kg every 4 days x3.
In a further series the test system is PC9 xenograft. The series can be described thus: PC9 xenograft in nude mice. In kind it is in vivo. The following applies: i.v., BO-1978 40 mg/kg, gefitinib 10 mg/kg, daily for 5 consecutive days.
A further series deals with PC9/gef B4 xenograft. The series can be described thus: PC9/gef B4 xenograft in nude mice. The format is in vivo. The following applies: i.v., BO-1978 40 mg/kg, gefitinib 10 mg/kg, daily for 5 consecutive days.
In another series the test system is H1650 xenograft. The series can be described thus: H1650 xenograft in nude mice. The format is in vivo. The following applies: i.v., BO-1978 40 mg/kg, gefitinib 10 mg/kg, daily for 5 consecutive days.
For the next series, the system named is H1975 xenograft. Kind of series: H1975 xenograft in nude mice. The conditions noted are these: i.v., BO-1978 40 mg/kg, gefitinib 10 mg/kg, daily for 5 consecutive days. The format is in vivo.
In the next series the test system is H1650-Luc cells. The series can be described thus: orthotopic lung tumor model, IVIS. The following applies: BO-1978 40 mg/kg, gefitinib 10 mg/kg, daily for 5 consecutive days. The format is in vivo, nude mice.
A further series deals with CCRF-CEM. Kind of series: cytotoxicity in multiple drug-resistant and cisplatin-resistant cells. In kind it is cell-based. The following applies: Homo sapiens.
The next series concerns CCRF/VBL. The description is as above. The format is cell-based.
The test system of a further series is KB. The series is described as above. In kind it is cell-based. The conditions noted are these: Homo sapiens.
The subject of a further series is KB/vin10. The description is as above. The format is cell-based.

Turning to `CCc1c2c(nc3ccc(OC(=O)N4CCC(N5CCCCC5)CC4)cc13)-c1cc3c(c(=O)n1C2)COC(=O)[C@]3(O)CC` [Irinotecan], the IC50 is 4.18 ± 1.29 µM in the series with H460 cells (Homo sapiens, NCI-H460, 72 h); 9.29 ± 3.31 µM in the series on A549 cells (Homo sapiens, A549, 72 h); 24.5 ± 1.85 µM in the series with H1299 cells (Homo sapiens, NCI-H1299, 72 h); 17.1 ± 4.2 µM in the series on H1650 cells (Homo sapiens, NCI-H1650, 72 h); 36.8 ± 14.4 µM with H1975 cells (Homo sapiens, NCI-H1975, 72 h); 11.2 ± 1.97 µM with PC9 cells (Homo sapiens, PC-9, 72 h).
As for `N.N.[Cl][Pt][Cl]` [Cisplatin], the IC50 in the series with H460 cells (H460, 72 hours, alamarBlue) is 9.94 ± 0.47 µM; with A549 cells (A549, 72 hours, alamarBlue) it was 31.1 ± 3.03 µM; in the series with H1299 cells (H1299, 72 hours, alamarBlue), 16.5 ± 0.9 µM; in the series on CL1-5 cells (CL1-5, 72 hours, alamarBlue), 2.82 ± 0.28 µM; in the series with CL141T cells (72 hours, alamarBlue), 2.8 ± 0.36 µM; with H1650 cells (H1650, 72 hours, alamarBlue), 36.5 ± 8.14 µM. Besides, the IC50 with H1975 cells (H1975, 72 hours, alamarBlue) was determined as 16.1 ± 4.03 µM; in the series with CL100 cells (CL100, 72 hours, alamarBlue), 6.21 ± 3.64 µM; with CL97 cells (CL97, 72 hours, alamarBlue) it was 14.7 ± 0.34 µM; in the series with PC9 cells (PC9, 72 hours, alamarBlue), 16.4 ± 3.29 µM; in the series with PC9/gef B4 cells (PC9/gef B4, 72 hours, alamarBlue) it was 34.3 ± 1.62 µM; in the series on MES-SA, 1.82 ± 0.66 µM. In addition, the IC50 in the series on MES-SA/dx5 (MES-SA/dx5) turned out to be 2.27 ± 0.73 µM; in the series with NTUB1, 2.97 ± 1.43 µM; in the series with NTUB1/P (NTUB1/P), 62.1 ± 15.3 µM. In the series with PC9/gef B4 cells, the “resistance factor of PC9/gef B4 to PC9 cells” value was 2.10. Moreover, the resistance factor is given as 1.25 x in the series with MES-SA/dx5 and 20.9 x in the series on NTUB1/P (NTUB1/P vs NTUB1). Also, the body weight loss result in the series on H460 xenograft (H460 xenograft mice) is “approximately 12%”. Besides, the “H460 xenograft tumor size suppressed/reduced to” value with H460 xenograft (i.v.) was 52%.
For `COc1cc2ncnc(Nc3ccc(F)c(Cl)c3)c2cc1OCCCN1CCOCC1` [Gefitinib, reference compound], the “suppression of xenograft tumor growth” value in the series with PC9 xenograft is reported as “approximately 36%”; in the series on PC9/gef B4 xenograft, ~49%; in the series on H1650 xenograft, ~51%; with H1975 xenograft, ~1%. Besides, the “orthotopic growth of H1650-Luc cells” value in the series on H1650-Luc cells is on record as “resistant to gefitinib treatment alone”.
Take `CC[C@]1(O)C[C@H]2CN(CCc3c([nH]c4ccccc34)[C@@](C(=O)OC)(c3cc4c(cc3OC)N(C=O)[C@H]3[C@@](O)(C(=O)OC)[C@H](OC(C)=O)[C@]5(CC)C=CCN6CC[C@]43[C@@H]65)C2)C1` [Vincristine, reference compound]: the half-maximal inhibitory concentration (IC50) in the series on CCRF-CEM came to 0.00223 ± 0.00019 µM; in the series with CCRF/VBL, 2.13 ± 0.249 µM; in the series on KB, 0.00216 ± 0.00025 µM; in the series on KB/vin10 (Homo sapiens, KB-VIN10), 0.51 ± 0.17 µM. Besides, the resistance factor came out at 954.3 x in the series with CCRF/VBL (CCRF/VBL vs CCRF-CEM) and 236.1 x with KB/vin10 (KB/vin10 vs KB).
For `COc1cc([C@@H]2c3cc4c(cc3[C@@H](O[C@@H]3O[C@@H]5CO[C@@H](C)O[C@H]5[C@H](O)[C@H]3O)[C@H]3COC(=O)[C@H]23)OCO4)cc(OC)c1O` [Etoposide], the IC50 in the series on H460 cells (Homo sapiens, NCI-H460, 72 h) was found to be 7.31 ± 2.56 µM; with A549 cells (Homo sapiens, A549, 72 h), 22.4 ± 14.4 µM; in the series on H1299 cells (Homo sapiens, NCI-H1299, 72 h), 15.6 ± 7.45 µM; in the series with CL1-5 cells (Homo sapiens, CL1-5, 72 h), 12.6 ± 3.93 µM; with CL141T cells (Homo sapiens, 72 h) it was 23.3 ± 3.34 µM; in the series with H1650 cells (Homo sapiens, NCI-H1650, 72 h) it was 32.5 ± 17.6 µM. The IC50 in the series with H1975 cells (Homo sapiens, NCI-H1975, 72 h) worked out at 14.1 ± 2.9 µM; with CL100 cells (Homo sapiens, 72 h), 4.3 ± 3.87 µM; with CL97 cells (Homo sapiens, CL97, 72 h), 24.4 ± 17.4 µM; in the series on PC9 cells (Homo sapiens, PC-9, 72 h), 19.3 ± 6.28 µM; with PC9/gef B4 cells (Homo sapiens, 72 h), 36.7 ± 20.5 µM. Besides, the “resistance factor of PC9/gef B4 to PC9 cells” value in the series with PC9/gef B4 cells was 1.90.
`COc1cccc2c1C(=O)c1c(O)c3c(c(O)c1C2=O)C[C@@](O)(C(=O)CO)C[C@@H]3O[C@H]1C[C@H](N)[C@H](O)[C@H](C)O1` [Doxorubicin]: the IC50 in the series on MES-SA (Homo sapiens) came to 0.038 ± 0.003 µM; with MES-SA/dx5 (Homo sapiens, MES-SA/Dx5), 2.3 ± 0.98 µM. In the series on MES-SA/dx5, this compound had a resistance factor of 60.52 x.

For orientation: IC50 means the concentration that gives 50% inhibition. A low value points to inhibition by little substance.
